This is an account of results in patent US20090291975A1, “DUAL OPIOID PAIN THERAPY” (priority 2008, published 2009).

The subject of this data set is patients following bunionectomy surgery (acute pain). Briefly: Study 4: opioid adverse events at morphine equivalent doses, bunionectomy study. To be noted: morphine equivalent 12 mg, q6h, 48 hr.

Take `CN1CC[C@]23c4c5ccc(O)c4O[C@H]2[C@@H](O)C=C[C@H]3[C@H]1C5` [Morphine, morphine]: the “Adverse Events (%): Constipation - moderate/severe” value came to 10%, the “Adverse Events (%): Constipation mild/mod/severe” value came to 10%, the “Adverse Events (%): Dizziness - moderate/severe” value is on record as 7% and the “Adverse Events (%): Dizziness mild/mod/severe” value is 31%. Also, the “Adverse Events (%): Nausea - moderate/severe” value came to 28%, the “Adverse Events (%): Nausea mild/mod/severe” value was determined as 59%, the “Adverse Events (%): Vomiting - moderate/severe” value was 21% and the “Adverse Events (%): Vomiting mild/mod/severe” value came out at 21%. In addition, the “Dropouts (%)” value worked out at 7%.
For `COc1ccc2c3c1O[C@H]1C(=O)CC[C@@]4(O)[C@@H](C2)N(C)CC[C@]314` [Oxycodone, oxycodone], the “Adverse Events (%): Constipation - moderate/severe” value was 6%, the “Adverse Events (%): Constipation mild/mod/severe” value is reported as 6%, the “Adverse Events (%): Dizziness - moderate/severe” value is on record as 12% and the “Adverse Events (%): Dizziness mild/mod/severe” value amounted to 24%. The “Adverse Events (%): Nausea - moderate/severe” value is 26%, the “Adverse Events (%): Nausea mild/mod/severe” value was 50%, the “Adverse Events (%): Vomiting - moderate/severe” value is 21% and the “Adverse Events (%): Vomiting mild/mod/severe” value came to 21%. For the same compound, the “Dropouts (%)” value is reported as 12%.
